Laboratory results as given in US20140213538A1, “LYSOPHOSPHATIDIC ACID RECEPTOR ANTAGONISTS” (InterMune, Inc., priority 2013, published 2014).

Assays:
Type in all cases: cell-based
LPA/S1P GPCR of interest = target: T1, LPA/S1P GPCR of interest (Homo sapiens, UniProt Q92633); test: Beta-Arrestin based assay (PathHunter)
T1 construct: host or cells: CHO
Summary of the method: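 EA Parental CHO cells (DiscoverX) were transfected with FuGENE (Roche) using CMV promoter-driven DNA constructs encoding the LPA/S1P GPCR of interest fused to a ProLink tag. Beta-arrestin recruitment in agonist mode was assessed 24-48 hrs later with PathHunter kits. Tests ran in quadruplicate in white 384 well plates, and end point luminescence was fit to a 4 parameter logistic function.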

LPA1 [1] = target: T2, LPA1 (Homo sapiens, UniProt Q92633); test: LPA1 Migration Assay (Oris); set-up: host or cells: primary fibroblasts (lung, dermal), HFL-1, 3T3 and CHO cells expressing LPA1R; conditions: read-out: Cell Migration EC50
T2 sequence (Q92633 whole entry): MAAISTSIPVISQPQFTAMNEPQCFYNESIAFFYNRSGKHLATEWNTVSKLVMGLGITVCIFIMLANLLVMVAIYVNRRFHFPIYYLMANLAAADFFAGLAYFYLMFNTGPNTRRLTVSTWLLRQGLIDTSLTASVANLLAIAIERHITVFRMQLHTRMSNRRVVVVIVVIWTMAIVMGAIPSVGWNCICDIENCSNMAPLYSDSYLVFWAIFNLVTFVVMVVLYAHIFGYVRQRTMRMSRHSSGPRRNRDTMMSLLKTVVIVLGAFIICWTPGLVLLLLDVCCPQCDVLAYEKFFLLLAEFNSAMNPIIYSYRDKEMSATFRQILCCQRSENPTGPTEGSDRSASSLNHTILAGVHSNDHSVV
Summary of the method: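 Antagonist inhibition was derived by 4-parameter logistic fitting of migrated-cell counts against compound concentration. Dye-loaded, 12-24 h serum-starved fibroblasts, HFL-1, 3T3 or CHO cells expressing LPA1R moved into an Oris detection zone in response to LPA or serum, then were fixed and counted on a high-content reader.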

LPA1 [2] = target: T2, LPA1; test: Ca Flux LPA1 assay; set-up: the full-length cDNA for human LPA1 is obtained by PCR of the reverse transcription reaction; expressed in transfected cells

T1 sequence (Q92633 whole entry): as above

| SMILES | EC50 (LPA/S1P GPCR of interest) [nM] | EC50 (LPA1 [1]) [nM] | IC50 (LPA1 [2]) [nM] |
| --- | --- | --- | --- |
| Cc1noc(-c2ccc(NC(=O)c3coc(C4(C(=O)O)CC4)c3)cc2)c1NC(=O)O[C@H](C)c1ccccc1 [IT224] | < 50 | < 50 | < 50 |
| Cc1noc(-c2ccc(-c3ccc(Oc4c(C)nn(C)c4C(=O)O)cc3)cc2)c1NC(=O)O[C@H](C)c1ccccc1 [IT483] | < 50 | 50 to 500 | 50 to 500 |
| C[C@@H](OC(=O)Nc1c(-c2ccc(-c3cc(F)c(Oc4ccccc4C(=O)O)c(F)c3)cc2)cnn1C)c1ccccc1 [IT425] | < 50 | < 50 | < 50 |
| Cc1noc(-c2ccc(-c3ccc(Oc4ccncc4C(=O)O)cc3)cc2)c1NC(=O)O[C@H](C)c1ccccc1 [IT227] | < 50 | < 50 | < 50 |
| Cc1nsc(-c2ccc(-c3cc(F)c(Oc4ccccc4C(=O)O)c(F)c3)cc2)c1NC(=O)O[C@H](C)c1ccccc1 [IT448] | < 50 | 50 to 500 | 50 to 500 |
| Cc1noc(-c2ccc(-c3cc(F)c(Oc4nc5ccccc5cc4C(=O)O)c(F)c3)cc2)c1NC(=O)O[C@H](C)c1ccccc1 [IT481] | < 50 | < 50 | > 500 |
| Cc1noc(-c2ccc(-c3ccc(C4(C(=O)O)CCC4)cc3)cc2)c1NC(=O)O[C@H](C)c1ccccc1 [IT235] | < 50 | < 50 | 50 to 500 |
| Cc1nnn(-c2ccc(-c3cc(F)c(Oc4ncccc4C(=O)O)c(F)c3)cc2)c1NC(=O)O[C@H](C)c1ccccc1 [IT307] | < 50 | 50 to 500 | < 50 |
| C[C@@H](OC(=O)Nc1c(-c2ccc(-c3cc(F)c(Oc4cccnc4C(=O)O)c(F)c3)cc2)nnn1C)c1ccccc1 [IT452] | < 50 | < 50 | < 50 |
| Cc1noc(-c2cc(F)c(-c3ccc(Oc4ccccc4C(=O)O)cc3)cc2F)c1NC(=O)O[C@H](C)c1ccccc1 [IT315] | < 50 | < 50 | < 50 |
| C[C@@H](OC(=O)Nc1c(-c2ccc(-c3cc(F)c(Oc4ccncc4C(=O)O)c(F)c3)cc2)nnn1C)c1ccccc1 [IT453] | < 50 | < 50 | 50 to 500 |
| Cc1noc(-c2ccc(-c3cc(F)c(Oc4ncccc4C(=O)O)c(F)c3)cc2)c1NC(=O)O[C@H](C)c1ccccc1 [IT258] | < 50 | < 50 | < 50 |
| C[C@@H](OC(=O)Nc1c(-c2ccc(-c3ccc(C4(C(=O)O)CC4)s3)cc2)nnn1C)c1ccccc1 [IT236] | < 50 | 50 to 500 | < 50 |
| C[C@@H](OC(=O)Nc1c(-c2ccc(-c3ccc(Oc4ccccc4C(=O)O)c(F)c3)cc2)nnn1C)c1ccccc1 [IT447] | < 50 | < 50 | < 50 |
| Cc1noc(-c2ccc(-c3ccc(OC4(C(=O)O)CCC4)cc3)cc2)c1NC(=O)O[C@H](C)c1ccccc1 [IT196] | < 50 | 50 to 500 | < 50 |
| Cc1noc(-c2ccc(-c3ccc(Oc4ccncc4C(=O)O)c(F)c3)cc2)c1NC(=O)O[C@H](C)c1ccccc1 [IT423] | < 50 | 50 to 500 | < 50 |
| Cc1noc(-c2cc(F)c(-c3cc(F)c(Oc4ncccc4C(=O)O)c(F)c3)cc2F)c1NC(=O)O[C@H](C)c1ccccc1 [IT474] | < 50 | < 50 | < 50 |
| C[C@@H](OC(=O)Nc1c(C#Cc2cc3sc(C4(c5nn[nH]n5)CC4)cc3s2)cnn1C)c1ccccc1 [IT104] | < 50 | 50 to 500 | < 50 |
| C[C@@H](OC(=O)Nc1c(-c2cc(Cl)c(-c3cc4sc(C5(C(=O)O)CC5)cc4s3)cc2F)cnn1C)c1ccccc1 [IT282] | < 50 | < 50 | 50 to 500 |
| Cc1noc(-c2ccc(-c3cc(F)c(Oc4ccccc4C(=O)O)c(F)c3)cc2)c1NC(=O)O[C@H](C)c1ccccc1 [IT316] | < 50 | < 50 | 50 to 500 |

| SMILES | EC50 (LPA/S1P GPCR of interest) [nM] | EC50 (LPA1 [1]) [nM] | IC50 (LPA1 [2]) [nM] |
| --- | --- | --- | --- |
| C[C@@H](OC(=O)Nc1c(-c2ccc(-c3ccc(C4(C(=O)OC5OC(C(=O)O)C(O)C(O)C5O)CC4)cc3)cc2)cnn1C)c1ccccc1 (stereo partly drawn) [IT105] | 50 to 500 | 50 to 500 | 50 to 500 |
| C[C@@H](OC(=O)Nc1sncc1C#Cc1cc2sc(C3(C(=O)O)CC3)cc2s1)c1ccccc1 [IT108] | > 500 | > 500 | > 500 |
| Cc1cc(C2(C(=O)O)CC2)c(F)cc1-c1cc2sc(-c3nnn(C)c3NC(=O)O[C@H](C)c3ccccc3)cc2s1 [IT341] | < 50 | 50 to 500 | 50 to 500 |
| Cc1noc(-c2ccc(-c3cc(F)c(Oc4cccnc4C(=O)O)c(F)c3)cc2)c1NC(=O)O[C@H](C)c1ccccc1 [IT435] | < 50 | < 50 | < 50 |
| Cc1noc(-c2ccc(-c3nc4sc(C5(C(=O)O)CC5)cc4s3)cc2)c1NC(=O)O[C@H](C)c1ccccc1 [IT111] | < 50 | 50 to 500 | 50 to 500 |
| Cc1noc(-c2ccc(-c3ccc(Oc4cccnc4C(=O)O)c(F)c3)cc2)c1NC(=O)O[C@H](C)c1ccccc1 [IT424] | < 50 | < 50 | < 50 |
| Cc1noc(-c2ccc(-c3cc(F)c(Oc4ccncc4C(=O)O)c(F)c3)cc2)c1NC(=O)O[C@H](C)c1ccccc1 [IT300] | < 50 | < 50 | < 50 |
| C[C@@H](OC(=O)Nc1c(-c2ccc(-c3cc(F)c(Oc4ncccc4C(=O)O)c(F)c3)cc2)nnn1C)c1ccccc1 [IT306] | < 50 | < 50 | < 50 |
| C[C@@H](OC(=O)Nc1ocnc1C#Cc1cc2sc(C3(C(=O)O)CC3)cc2s1)c1ccccc1 [IT125] | > 500 | 50 to 500 | < 50 |
| C[C@@H](OC(=O)Nc1c(-c2ccc(-c3ccc(C4(C(=O)O)CC4)c4c3CCC4)cc2)cnn1C)c1ccccc1 [IT112] | < 50 | 50 to 500 | < 50 |
| C[C@@H](OC(=O)Nc1c(-c2ccc(-c3ccc(C4(C(=O)O)CC4)cc3)cc2)oc2ccccc12)c1ccccc1 [IT496] | < 50 | < 50 | > 500 |
| Cc1noc(-c2ccc(-c3cc(F)c(OC4(C(=O)O)CC4)c(F)c3)cc2)c1NC(=O)O[C@H](C)c1ccccc1 [IT304] | < 50 | 50 to 500 | < 50 |
| C[C@@H](OC(=O)Nc1c(-c2ccc(-c3ccc(Oc4ccccc4C(=O)O)cc3)cc2)nnn1C)c1ccccc1 [IT309] | < 50 | < 50 | < 50 |
| C[C@@H](OC(=O)Nc1c(-c2cc(F)c(-c3cc4sc(C5(C(=O)O)CC5)cc4s3)cc2F)cnn1C)c1ccccc1 [IT121] | < 50 | < 50 | > 500 |
| Cc1noc(-c2ccc(-c3ccc(Oc4ccccc4C(=O)O)nc3)cc2)c1NC(=O)O[C@H](C)c1ccccc1 [IT345] | < 50 | 50 to 500 | < 50 |
| C[C@@H](OC(=O)Nc1c(-c2ccc(-c3ccc(C4(C(=O)O)CCOCC4)cc3)cc2)cnn1C)c1ccccc1 [IT027] | 50 to 500 | > 500 | 50 to 500 |
| C[C@@H](OC(=O)Nc1c(-c2ccc(-c3cc(F)c(Oc4ncccc4C(=O)O)c(F)c3)cc2)cnn1C)c1ccccc1Cl [IT450] | < 50 | < 50 | 50 to 500 |
| C[C@@H](OC(=O)Nc1c(-c2ccc(-c3cc(F)c(Oc4ccncc4C(=O)O)c(F)c3)cc2)cnn1C)c1ccccc1 [IT438] | < 50 | 50 to 500 | 50 to 500 |
| Cc1noc(-c2ccc(-c3ccc(Oc4c(C(=O)O)n[nH]c4C)cc3)cc2)c1NC(=O)O[C@H](C)c1ccccc1 [IT485] | < 50 | < 50 | 50 to 500 |
